The values that follow are results of earlier work, collected in US11453692B2, “Non-caloric sweeteners and methods for synthesizing” (Conagen Inc., priority 2014, dated 2022).

For this series the following is noted: sweetness relative to sucrose.

As to `C=C1C[C@@]23CCC4[C@](C)(C(=O)OC5OC(CO)C(O)C(O)C5O)CCC[C@@]4(C)[C@@H]2CC(OC2OC(CO)C(O)C(OC4OC(CO)C(O)C(O)C4O)C2OC2OC(C)C(O)C(O)C2O)C1C3` (some centres unmarked) [Rebaudioside C], the “times sweeter than sucrose” value is given as 40-60 times.
For Stevioside, the “times sweeter than sucrose” value is 100-150 times.
